Results on 81 compounds are retold here after the RepoRT retention time repository (doi:10.1016/j.aca.2011.12.065).

Counter-ions that a name gives are not always drawn.

One data set is described as follows: RP, Waters ACQUITY UPLC BEH C18, 100 × 2.1 mm, 1.7 µm; A: water + 0.1% formic acid, pH 3; B: 80% acetonitrile + 20% acetone + 0.1% formic acid, pH 3; gradient (min/%B) 0/0 6/100. Conditions: stereoisomer not certain.
For the compound `CCCCCCCCCCCCCCCCC=COCC(O)COP(=O)([O-])OCC[N+](C)(C)C` (stereo unspecified), the LC retention time was found to be 4.95 min.
Consider `CCC(C)(O)C(=O)O` (stereo unspecified) [2-Hydroxy-2-methylbutyric acid], for which the LC retention time is 1.63 min.
In the case of `CC(C)C(O)C(=O)O` (stereo unspecified) [2-Hydroxy-3-methylbutyric acid], the LC retention time came out at 1.69 min.
`CCC(C)C(=O)C(=O)O` (stereo unspecified) [2-Oxo-3-methylpentanoic acid]: the LC retention time was found to be 1.86 min.
In the case of `CC(C)CC(=O)C(=O)O` [2-Oxo-4-methylpentanoic acid], the LC retention time worked out at 1.99 min.
For the compound `CCCC(=O)C(=O)O` [2-Oxovaleric acid], the LC retention time was found to be 1.62 min.
Take `CC(=O)C(C)C(=O)O` (stereo unspecified) [2-methylacetoacetic acid]: the LC retention time is 1.61 min.
On to `O=C(O)CCc1ccc(O)c(O)c1` [3,4-dihydroxyhydrocinnamic acid], for which the LC retention time was 1.69 min.
`OCC(O)c1ccc(O)c(O)c1` (stereo unspecified) [3,4-dihydroxyphenyl glycol]: the LC retention time is 1.02 min.
For `CC(O)C(C)C(=O)O` (stereo unspecified) [3-Hydroxy-2-methylbutyric acid], the LC retention time stood at 1.51 min.
Take `Nc1ccc(OS(=O)(=O)O)cc1` [4-Aminophenyl hydrogen sulfate]: the LC retention time worked out at 0.641 min.
Consider `Nc1ccc(O)cc1` [4-aminophenol], for which the LC retention time came to 0.641 min.
Consider `O=C(O)Cc1c[nH]c2ccc(O)cc12` [5-hydroxyindole-3-acetic acid], for which the LC retention time came out at 1.61 min.
With `COc1ccc(O)c(C(=O)O)c1` [5-methoxysalicylic acid], the LC retention time turned out to be 2.41 min.
`CC12CCC(=O)C=C1CCC1C2CCC2(C)C1CCC2(O)C(=O)CO` (stereo unspecified) [11-Deoxy-17-hydroxycorticosterone]: the LC retention time came to 3.04 min.
Same read-out and setting: for `CC(O)C1CCC2C3CCC4CC(=O)CCC4(C)C3CCC12C` (stereo not drawn) [20-beta-Hydroxy-5-alpha-pregnan-3-one] the value was 4.33 min.
Regarding `CC[C@@H](O)C(=O)[O-]` [(R)-2-hydroxybutyric acid], the LC retention time was 1.4 min.
Consider `CC(C)C(=O)C(=O)O` [Alpha-ketoisovaleric acid], for which the LC retention time came to 1.45 min.
On the same count and under the same terms, for `CCCCCCCCCCCCCCCCOCC(COP(=O)([O-])OCC[N+](C)(C)C)OC(=O)CCCCCCCC(=O)O` (stereo unspecified) [Azelaoyl PAF 10 ug/ml] the value was 4.86 min; for `CC12CCc3occc3C1CCC13CC(CCC12)C(O)(CO)C3` (stereo unspecified) [Cafestol (10x dilute)], 3.19 min; for `CCC(C)C1NC(=O)C(C)NC1=O` (stereo unspecified) [Cyclic(ala-ile)], 1.8 min.
The same measure, in the same setting: for `CC(C)CC1NC(=O)C(C)NC1=O` (stereo unspecified) [Cyclic(ala-leu)] the value was 1.86 min.
In the case of `O=C(O)CCC1NC(=O)C(CC(=O)O)NC1=O` (stereo unspecified) [Cyclic(asp-glu)], the LC retention time was determined as 0.884 min.
Consider `CCC(C)C1NC(=O)C(CC(=O)O)NC1=O` (stereo unspecified) [Cyclic(asp-ile)], for which the LC retention time is 1.65 min.
In the case of `CC(C)CC1NC(=O)C(CC(=O)O)NC1=O` (stereo unspecified) [Cyclic(asp-leu)], the LC retention time turned out to be 1.68 min.
Regarding `CCC(C)C1NC(=O)C(CCC(=O)O)NC1=O` (stereo unspecified) [Cyclic(glu-ile)], the LC retention time was 1.71 min.
Regarding `O=C(O)CCC1NC(=O)C2CCCN2C1=O` (stereo unspecified) [Cyclic(glu-pro)], the LC retention time is 1.43 min.
Same read-out and setting: under `CC(C)C1NC(=O)C(CCC(=O)O)NC1=O` (stereo unspecified) [Cyclic(glu-val)] stands 1.5 min; under `CCC(C)C1NC(=O)C(C(C)C)NC1=O` (stereo unspecified) [Cyclic(ile-val)], 2.31 min.
Same read-out and setting: for `CC(C)C1NC(=O)C(Cc2ccccc2)NC1=O` (stereo unspecified) [Cyclic(phe-val)] the value was 2.39 min; for `CC(C)C1NC(=O)C2CCCN2C1=O` (stereo unspecified) [Cyclic(pro-val)], 1.74 min.
Turning to `O=C(O)CNC(=O)C=Cc1c[nH]c2ccccc12` [INDOLE-3-ACRYLOYLGLYCINE], the LC retention time worked out at 2.13 min.
Regarding `CCCCCC=CCC=CCCCCCCCC(=O)OCC(O)COP(=O)([O-])OCC[N+](C)(C)C` (stereo unspecified) [LPC(18:2)_enz], the LC retention time is 4.25 min.
As to `CCC=CCC=CCC=CCC=CCC=CCCCC(=O)OCC(O)COP(=O)([O-])OCC[N+](C)(C)C` (stereo unspecified) [LPC(20:5)_enz], the LC retention time stood at 4.02 min.
Consider `CNC(CC(=O)O)C(=O)O` (stereo unspecified) [N-methyl-aspartic acid], for which the LC retention time stood at 0.58 min.
On the same count and under the same terms, under `O=C(O)CNC(=O)c1cccnc1` [Nicotinuric acid] stands 1.35 min; under `CCCCCCCCCCCCCCCC(=O)OCC(COP(=O)([O-])OCC[N+](C)(C)C)OC(=O)CCCCCCCC(=O)O` (stereo unspecified) [PAZ-PC], 4.66 min; under `CCC=CCC=CCC=CCC=CCC=CCCCC(=O)OCC(COP(=O)([O-])OCC[N+](C)(C)C)OC(=O)CCCC=CCC=CCC=CCC=CCC=CCC` (stereo unspecified) [PC(20:5/20:5)], 5.62 min.
Regarding `CCCCCCCCCCCCCCCC(=O)OCC(COP(=O)([O-])OCC[N+](C)(C)C)OC(=O)CCCC(=O)O` (stereo unspecified) [PGPC], the LC retention time was 4.52 min.
As to `CCCCCCCCCCCCCCCC(=O)OCC(COP(=O)([O-])OCC[N+](C)(C)C)OC(=O)CCCC=O` (stereo unspecified) [POV-PC 10 ug/ml], the LC retention time worked out at 4.66 min.
For `CC(C)C(NC(=O)C(N)Cc1ccccc1)C(=O)O` (stereo unspecified) [Phe-Val], the LC retention time is 1.63 min.
Still for that read-out and setting: for `CC12C=CC(=O)C=C1CCC1C2C(O)CC2(C)C1CCC2(O)C(=O)CO` (stereo unspecified) [Prednisolone] the value was 2.65 min.
Take `Cc1ncc(C[n+]2csc(CCOP(=O)(O)O)c2C)c(N)n1` [Thiamine monophosphate Cloride dihydrat]: the LC retention time was 0.595 min.
Consider `CC(C)C(N)C(=O)NC(Cc1ccccc1)C(=O)O` (stereo unspecified) [Val-Phe], for which the LC retention time stood at 1.7 min.
Consider `CC(C)C(N)C(=O)O` (stereo unspecified) [Valine], for which the LC retention time came to 0.798 min.
With `CC(C)(O)C(=O)O` [alpha-hydroxyisobutyric acid], the LC retention time came out at 1.4 min.
In the case of `CCC(C)C(NC(=O)C(N)CC(=O)O)C(=O)O` (stereo unspecified) [asp-ile], the LC retention time was 0.6 min.
Take `CC(C)CC(NC(=O)C(N)CC(=O)O)C(=O)O` (stereo unspecified) [asp-leu]: the LC retention time came to 0.6 min.
Still for that read-out and setting: under `CCC(C)C(NC(=O)CC(N)C(=O)O)C(=O)O` (stereo not drawn) [beta-asp-ile] stands 0.6 min.
The same measure, in the same setting: for `CC(C)CC(NC(=O)CC(N)C(=O)O)C(=O)O` (stereo not drawn) [beta-asp-leu] the value was 0.6 min.
Still for that read-out and setting: under `CC(O)CC(=O)[O-]` (stereo not drawn) [beta-hydroxybutyric acid] stands 1.78 min.
On to `CC(CO)C(=O)O` (stereo not drawn) [beta-hydroxyisobutyric acid], for which the LC retention time was determined as 1.4 min.
As for `CS(=O)CCC(N)C(=O)O` (stereo not drawn) [dl methine sulfoxide], the LC retention time stood at 0.596 min.
Same read-out and setting: for `O=C(O)CCCO` [gamma-hydroxybutyric acid] the value was 1.07 min.
With `CC(C)C(NC(=O)C(N)CCC(=O)O)C(=O)O` (stereo unspecified) [glu-val], the LC retention time was determined as 1.32 min.
Still for that read-out and setting: for `CCC(C)C(N)C(=O)NC(CC(=O)O)C(=O)O` (stereo unspecified) [ile-asp] the value was 0.6 min; for `O=Cc1c[nH]c2ccccc12` [indole-3-carbaldehyde], 2.27 min; for `Nc1ccccc1C(=O)CC(N)C(=O)O` (stereo not drawn) [l-kynurenine], 1.34 min.
For `CC(C)CC(N)C(=O)NC(CC(=O)O)C(=O)O` (stereo unspecified) [leu-asp], the LC retention time was found to be 0.6 min.
Consider `O=C(O)CC(NC(=O)C1CCC(=O)N1)C(=O)O` (stereo unspecified) [pglu-asp], for which the LC retention time turned out to be 0.6 min.
For `CCC(C)C(NC(=O)C1CCC(=O)N1)C(=O)O` (stereo unspecified) [pglu-ile], the LC retention time turned out to be 1.83 min.
On the same count and under the same terms, for `CC(C)CC(NC(=O)C1CCC(=O)N1)C(=O)O` (stereo unspecified) [pglu-leu] the value was 1.89 min; for `CC(C)C(NC(=O)C1CCC(=O)N1)C(=O)O` (stereo unspecified) [pglu-val], 1.57 min.
With `NC(Cc1ccccc1)C(=O)NC(CC(=O)O)C(=O)O` (stereo unspecified) [phe-asp], the LC retention time amounted to 1.54 min.
As to `CC(O)C(NC(=O)C1CCCN1)C(=O)O` (stereo unspecified) [pro-thr], the LC retention time is 0.6 min.
Same read-out and setting: under `CCC(=O)OC(CC(=O)[O-])C[N+](C)(C)C` (stereo unspecified) [propionylcarnitine chloride] stands 1.35 min; under `COc1cc(C(=O)O)cc(OC)c1O` [syringic acid], 1.79 min.
For `CC(CCC(=O)NCCS(=O)(=O)O)C1CCC2C3CCC4CC(O)CCC4(C)C3CCC12C` (stereo unspecified) [taurolithocholic acid], the LC retention time came out at 3.84 min.
Regarding `CC(C)C(N)C(=O)NC(CCC(=O)O)C(=O)O` (stereo unspecified) [val-glu], the LC retention time was 0.906 min.

A short description of a further data set: RP, Waters ACQUITY UPLC HSS T3, 100 × 2.1 mm, 1.8 µm; A: water + 0.1% formic acid, pH 3; B: 30% methanol + 70% acetonitrile + 0.1% formic acid, pH 3; gradient (min/%B) 0.0/5 1.0/8 2.0/15 3.0/40 4.0/70 4.5/100 5.0/100 6.4/100 6.6/5.0 6.8/5.0 7.0/5.0. Conditions: stereoisomer not certain.
With `CC12CCC3C(CCC4CC(=O)CCC43C)C1CCC2O` (stereo unspecified), the LC retention time turned out to be 4.47 min.
For the compound `CC(C)(N)C(=O)O` [2-aminoisobutyric acid], the LC retention time stood at 0.524 min.
Take `CCC(C)(O)C(=O)O` (stereo unspecified) [2-hydroxy-2-methylbutyric acid]: the LC retention time came to 2.23 min.
Take `COc1ccc(O)c(C(=O)O)c1` [2-hydroxy-5-methoxylbenzoic acid]: the LC retention time worked out at 3.69 min.
As to `CC(C)C(O)C(=O)O` (stereo unspecified) [2-hydroxyisovaleric acid], the LC retention time was found to be 2.54 min.
For `Cc1ccccc1C(=O)NCC(=O)O` [2-methylhippuric acid], the LC retention time amounted to 3.41 min.
Regarding `OCC(O)c1ccc(O)c(O)c1` (stereo unspecified) [3,4-dihydroxyphenylglycol], the LC retention time was found to be 0.858 min.
For `Cn1c(=O)[nH]c(=O)c2c1[nH]c(=O)n2C` [3,7-dimethyluric acid], the LC retention time came to 1.55 min.
The same measure, in the same setting: for `CC(O)CC(=O)O` (stereo unspecified) [3-hydroxybutyric acid] the value was 3.44 min.
Regarding `O=C(O)Cc1c[nH]c2ccccc12` [3-indoleacetic acid], the LC retention time is 3.63 min.
On the same count and under the same terms, for `Cc1cc(C(=O)O)ccc1O` [4-hydroxy-3-methylbenzoic acid] the value was 3.46 min; for `O=C(O)Cc1c[nH]c2ccc(O)cc12` [5-hydroxyindole-acetic acid], 2.92 min.
